Results on 5 molecules are retold here after US5179084A, “Antiviral phosphoric acid esters of oxetanocins” (Nippon Kayaku Kabushiki Kaisha, priority 1989, dated 1993).

Experiment [1] deals with T1, reverse transcriptase (RTase) of HIV (Human immunodeficiency virus type 1 group M subtype B, UniProt P04585).
T1 construct: Measurement of Activity of Reverse Transcriptase (RTase) of HIV; endogenous in cells; host or cells: MOLT-4/HTLV-IIIB cells persistently infected with HIV (viral protein made by the infection; crude lysate)
The experiment can be described thus: Inhibition of HIV reverse transcriptase (RTase), 3H-AMP uptake. Type of experiment: biochemical, human immunodeficiency virus (HTLV-IIIB). Here is the method:
Measurement of Activity of Reverse Transcriptase (RTase) of HIV
MOLT-4/HTLV-IIIB cells which were persistently infected with HIV were destroyed with Triton X-100 or the like to prepare crude enzyme (RTase).
Using poly(dT) and oligo(dA) as template primers, the following reaction solution was used.
2. Composition of reaction solution
______________________________________
5 mg/ml Bovine serum albumin
1M Tris-HCl buffer (pH 7.8)
100 mM Dithiothreitol 2.0
5 units/ml Oligo(dA) 4.0
Uptake of ^3 H-AMP in the acid-insoluble fraction in the reaction solution under the above conditions was determined by a liquid scintillation counter.

In a further experiment the test system is HIV. Briefly: Anti-HIV activity in MT-4 cells, development of virus antigen by indirect fluorescent antibody method. The settings on record: for EC50: Human immunodeficiency virus 1, MT4, 96 h, MT-4 cells, 4 days culture after HIV infection, read-out: Development of Virus Antigen Activity ED50; for anti-HIV activity (in words): summary of results. The format is cell-based. Here is the method:
MT-4 cell (about 10,000 cells/ml) was added to a 24 well tray, and then 100 μl of a solution containing a predetermined quantity of Compound No. 1 of the present invention was added. After culturing at 37° C. for 5 hours in 5% (v/v) carbon dioxide incubator, 10^3 to 10^4 infection units of HIV was added and cultured for 4 days. Then, a part of the cultured fluid was coated onto a slide glass and immobilized with acetone, after which development of virus antigen was observed by indirect fluorescent antibody method.
As the primary antibody of the fluorescent antibody method, a serum of AIDS patient was used. As its secondary antibody, FITC-labelled […] was used.

Experiment [2] relates to cytomegalovirus (A0169 strain). Briefly: Anti-cytomegalovirus activity, plaque formation in human fetal fibroblasts. Type of experiment: cell-based. To be noted: Human betaherpesvirus 5, Fibroblast, 240 h, 100 PFU, 37° C., 10 days, read-out: Anti-cytomegalovirus Activity ED50 (50% inhibitory value). Here is the method:
Anti-cytomegalovirus activity was determined by the following manner. A 35 mm.PHI. dish containing a single layer of human fetal fibroblasts was infected with 100 PFU (plaque forming units) of cytomegalovirus (A0169 strain). After adsorption for one hour, a medium (0.5% agarose, 2% fetal calf serum) containing a varied concentration of the compound of the present invention was superposed thereon, and the whole was cultured at 37° C. for 10 days in 5% (v/v) carbon dioxide incubator, after which the formation of plaque was measured. The results are shown in Table 3 in terms of 50% inhibitory value (ED50).

Experiment [3] concerns DNA virus such as cytomegalovirus, hepatitis B virus, herpes virus. The experiment can be described thus: Antiviral activity (summary statement). To be noted: summary of results.
Experiment [4] addresses HBV-intrinsic DNA polymerase (Hepatitis B virus adr4, UniProt P12933). The experiment can be described thus: Inhibitory activity on HBV-intrinsic DNA polymerase, HBV core particles from HB611 cells. The format is biochemical. Here is the method:
1. Partial purification of HBV core particles
After HB611 cells were homogenized with buffer solution for extraction shown below, the centrifugal supernatant (14000 rpm, 0° C., 30 minutes) was overlaid on 30% saccharose-containing buffer solution for extraction, which was subjected to supercentrifugation (35000 rpm, 4° C., 18 hours) to give crude core particle precipitates. The crude core particles were suspended in the buffer solution for extraction and purified by cesium chloride density-gradient centrifugation method to give partially purified core particles showing a density of 1.30 to 1.35 g/ml.
Buffer solution for extraction:
2-mercaptoethanol/1 mM PMSF): 10 mM
Tris-hydrochloride (pH 7.4), 1 mM EDTA, 10 mM
2. Measurement of HBV-intrinsic polymerase activity
The partially purified core particles were added to the reaction solution shown below. After incubating at 37° C. for 2 hours in the presence of Compound No. 3 in various concentrations, dCTP was added thereto in a final concentration of 1 mM. After incubation at 37° C. for an additional an hour, proteinase K, SDS, EDTA and tRNA were added thereto in final concentrations of 0.5 mg/ml, 1%, 10 mM and 200 μg/ml, respectively, followed by incubation at 45° C. for 2 hours. Thereafter HBV-DNA was purified by phenolchloroform extraction and ethanol precipitation and then subjected to electrophoresis with 1.5% agarose. Radioactive uptake in HBV-DNA was determined by autoradiography. The autoradiogram was scanned by a densitometer to calculate the inhibitory activity of Compound No. 3 against HBV-DNA polymerase.
Reaction solution: containing 50 mM Tris-hydrochloride
(pH 7.4), 30 mM magnesium chloride, 0.1 M
ammonium chloride, 0.2% 2-mercaptoethanol,
200 μM each of dATP, dGTP and dTTP

The inhibition is the relative decrease from the control value, in per cent.

Structures are written as SMILES. ≈ marks a conversion by molar mass, not a printed value.

Sequence of HBV-intrinsic DNA polymerase (P12933 whole entry): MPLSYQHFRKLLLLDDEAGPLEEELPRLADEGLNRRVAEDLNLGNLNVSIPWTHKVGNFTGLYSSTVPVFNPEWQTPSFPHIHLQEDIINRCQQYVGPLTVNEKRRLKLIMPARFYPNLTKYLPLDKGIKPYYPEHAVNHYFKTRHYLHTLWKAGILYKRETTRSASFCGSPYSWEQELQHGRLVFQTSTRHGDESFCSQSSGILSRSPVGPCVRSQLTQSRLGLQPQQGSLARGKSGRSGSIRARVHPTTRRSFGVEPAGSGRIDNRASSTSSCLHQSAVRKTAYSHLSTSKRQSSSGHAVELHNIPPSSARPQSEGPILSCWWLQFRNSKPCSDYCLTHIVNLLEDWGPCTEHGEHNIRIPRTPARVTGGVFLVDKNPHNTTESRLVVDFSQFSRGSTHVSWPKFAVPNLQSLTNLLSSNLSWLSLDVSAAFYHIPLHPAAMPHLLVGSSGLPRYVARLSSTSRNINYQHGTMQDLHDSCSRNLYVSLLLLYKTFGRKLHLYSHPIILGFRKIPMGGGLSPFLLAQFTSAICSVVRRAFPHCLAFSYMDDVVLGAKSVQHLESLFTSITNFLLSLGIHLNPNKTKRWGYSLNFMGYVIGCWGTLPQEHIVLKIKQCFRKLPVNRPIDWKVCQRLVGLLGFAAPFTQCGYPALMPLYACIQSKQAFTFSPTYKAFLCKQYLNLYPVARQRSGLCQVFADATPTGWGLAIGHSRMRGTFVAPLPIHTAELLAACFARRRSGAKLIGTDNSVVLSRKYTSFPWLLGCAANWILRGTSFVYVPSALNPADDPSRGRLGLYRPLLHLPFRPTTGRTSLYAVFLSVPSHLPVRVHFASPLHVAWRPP

Regarding `Nc1ncnc2c1ncn2[C@@H]1O[C@H](COP(=O)(O)OP(=O)(O)OP(=O)(O)O)[C@H]1CO` [Compound No. 2], in experiment [1] (4.17 μM, 37° C., 1 hour), the inhibition at 4.17 µM amounted to 1%. In experiment [1] (12.5 μM, 37° C., 1 hour), this molecule gave an inhibition at 12.5 µM of 33.9%. In experiment [1] (125 μM, 37° C., 1 hour), this molecule registered an inhibition at 125 µM of 93%. The molecule also registered an inhibition at 417 µM in experiment [1] (417 μM, 37° C., 1 hour) of 98.8%. For the same molecule, the inhibition at 42.7 µM in experiment [1] (read-out: RTase Inhibition (%)) came to 69.4%. The “reverse transcriptase inhibitory action of HIV (in words)” value in experiment [1] (summary of results) is “shows reverse transcriptase inhibitory action of HIV”.

With `Nc1ncnc2c1ncn2[C@H]1C[C@@H](COP(=O)(O)O)O1` [Compound No. 6], in the experiment on HIV, the EC50 turned out to be 0.007 µg/mL (≈ 0.0232 µM) and the “anti-HIV activity (in words)” value is reported as “excellent anti-HIV activity”.

With `Nc1nc2c(ncn2[C@@H]2O[C@H](COP(=O)(O)O)[C@H]2CO)c(=O)[nH]1` [Compound No. 5], the EC50 in experiment [2] stood at 0.4 µg/mL (≈ 1.15 µM). In addition, the “antiviral activity against DNA virus (in words)” value in experiment [3] is listed as “excellent antiviral activity against DNA virus”.

As for `Nc1nc2c(ncn2[C@@H]2O[C@H](COP(=O)(O)OP(=O)(O)OP(=O)(O)O)[C@H]2CO)c(=O)[nH]1` [Compound No. 3], in experiment [4] (100 μM, read-out: Inhibition Rate (HBV-DNA polymerase)), the inhibition at 100 µM came out at 50.7%. Besides, the inhibition at 200 µM in experiment [4] (200 μM, read-out: Inhibition Rate (HBV-DNA polymerase)) is 88.8%. Moreover, the inhibition at 400 µM in experiment [4] (400 μM, read-out: Inhibition Rate (HBV-DNA polymerase)) is 96.8%. For the same molecule, in experiment [4] (summary of results, 'the aforesaid DNA virus'), the “inhibition of DNA polymerase of DNA virus (in words)” value is reported as “inhibits DNA polymerase of the aforesaid DNA virus”.

As to `Nc1ncnc2c1ncn2[C@@H]1O[C@H](COP(=O)(O)O)[C@H]1CO` [Compound No. 1], the EC50 in experiment [2] is 1.85 µg/mL (≈ 5.59 µM). Further, in the experiment with HIV, the EC50 came out at 0.1 µg/mL (≈ 0.302 µM) and the “anti-HIV activity (in words)” value was “excellent anti-HIV activity”.
